Source: patent US7759392B2, “Pharmaceutical compounds” (Nicox S.A., priority 1999, dated 2010)
“Also recorded” adds a separate entry of the source.

Experiments:
[1] = tested on: gastrointestinal mucosa; conditions: male, Wistar, rat, in vivo, 6 h
Description: Gastric lesions induced by administration of the compounds of the invention in the confront of the corresponding drug precursor.
The animals have been sacrificed 6 hours after the administration. The gastrointestinal mucosa has been removed and inspected. The incidence of the gastrointestinal damage has been evaluated as described in experiment F1.

[2] = tested on: erythrocytes; assay: Test 4A: inhibition of erythrocyte haemolysis induced by cumene hydroperoxide; conditions: 2 mM
[3] = tested on: gastrointestinal mucosa; conditions: rats; for Gastro-enteropathy (% incidence) without NEM: maximum tolerated dose
Description: The animals (rats) are distributed in the following groups (no. 10 animals for group):
• 1° group: treatment: only carrier (aqueous suspension 1% w/v of carboxymethylcellulose, dose: 5 ml/Kg when the drug is administered by os, or a physiologic solution when parenterally administered, i.e. by subcutaneous, intraperitoneal, intravenous or intermuscular route), • 2° group: treatment: carrier as above defined+NEM, B) Groups Treated with the Drug: • group I: treatment: carrier+drug, • group II: treatment: carrier+drug+NEM.
The administration routes are those known for the drug, and can be the oral or subcutaneous, intraperitoneal, intravenous or intramuscular route.
The animals are sacrificed after 24 hours and then one proceeds to the evaluation of the damage to the gastrointestinal mucosa.
Test 1—experimental model in vivo with N-ethylmaleimide (NEM): study of the gastric tolerability of some drugs screened as precursors of the compounds of the invention.
The animals (rats, weight about 200 g) are distributed in the following groups (No. 10 animals for group):
• 1° group: treatment: only carrier (aqueous suspension 1% w/v of carboxymethylcellulose, dose: 5 ml/Kg when the drug is administered by os, physiologic solution when by parenteral route), • 2° group: treatment: carrier+NEM, B) Groups Administered with Each Drug: • group I: treatment: carrier+drug, • group II: treatment: carrier+drug+NEM.
The drug is administered one hour later, in suspension in the carrier. Animals are sacrificed after 24 hours and evaluation of the damage to the gastrointestinal mucosa is made by counting the number of rats, inside each group, with lesions to the stomach at a visual inspection. The total number of said rats is then divided by the total number of rats of the group and multiplied by 100.

[4] = tested on: human endothelial cells of the umbilical vein; assay: Test 2 (CIP): apoptosis (DNA fragmentation) induced by cumene hydroperoxide in endothelial cells; assay type: cell-based; conditions: drug 10^-4 M, CIP 5 mM; for activity at 100 µM: Homo sapiens, Endothelial cell, 1 h, read-out: Apoptosis % with respect to the controls treated only with CIP; for activity at 100 µM / Apoptosis % with respect to the controls treated only with CIP: one hour
Description: Test 2 (CIP): Protection parameter of endothelial cell against the oxidative stress induced by cumene hydroperoxide (CIP).
Human endothelial cells of the umbilical vein are prepared according to an usual standard procedure. Fresh umbilical veins are filled with a 0.1% by weight collagenase solution and incubated at 37° C. for 5 minutes.
The cells are collected from the perfusate by centrifugation and harvested in culture flasks T-75, pretreated with human fibronectin. The cells are then harvested in the same medium, further added with 10 ng/ml of bovine hypothalamic growth factor. When the cells of the primary cell culture (i.e. that directly obtained from ex-vivo) form a single layer of confluent cells (about 8,000,000 cells/flask), the culture is stopped and the layers washed and trypsinized. The cellular suspensions are transferred into the wells of a cell culture plate having 24 wells, half of which is then additioned with the same culture medium containing the drug at a 10^−4M concentration, and harvested in a thermostat at 37° C. at a constant moisture. Only the cells coming from said first sub-cultures are used for the experiments with cumene hydroperoxide (CIP).
Before starting the test, the cellular culture medium is removed and the cellular layers are carefully washed with a physiologic solution at a temperature of 37° C. The wells of the culture plate are then incubated for one hour with CIP at a 5 mM concentration in the culture medium. […] 5 replicates for each sample are carried out.
Human endothelial cells of the umbilical vein are prepared according to a standard method. Fresh umbilical veins are filled with a collagenase solution 0.1% by weight and incubated at 37° C. for 5 minutes.
The cells are collected from the perfusate by centrifugation at 800 rpm and harvested in culture flasks T-75, pretreated with human fibronectin. Cells are then harvested in the same medium, added with bovine hypothalamic growth factor (100 ng/ml). When the cells of the primary cell culture (the cells directly removed from ex-vivo umbilical vein) form a single layer of confluent cells (about 8,000,000 cells/flask), harvesting is stopped and the layers are washed and trypsinized. The cellular suspensions are transferred into wells of a culture plate having 24 wells, half of said wells being added with the same culture medium containing the drug at a 10^−4M concentration, and harvested in a thermostat at 37° C. at a constant moisture (90%), CO2=5%. When the drug is not soluble in the culture medium, it is formerly dissolved in a small amount of dimethylsulphoxide. The maximum amount of dimethylsulphoxide which can be added to the culture medium is 0.5%. Only the cells coming from these first subcultures are used for the tests with cumene hydroperoxide (CIP).
Before starting the test, the cellular culture medium is removed and the cellular layers are carefully washed with a standard physiologic solution buffered with phosphate 0.1 M pH 7.0, at the temperature of 37° C. The content of each well is then incubated for one hour with a CIP suspension in the culture medium at a 5 mM concentration. Evaluation of the cellular damage (apoptosis) is carried out by determining the percent variation of the DNA fragmentation in the cultures containing the drug+CIP with respect to the controls treated with CIP only. […] The fluorescence of each sample was determined on 5 replicates. Statistic evaluation has been made with t Student test (p<0.01).

[5] = tested on: gastrointestinal mucosa, liver (GPT), vascular endothelium (blood pressure); conditions: rat, in vivo; for Gastroenteropathy % without L-NAME: 4 weeks
Description: The endothelial dysfunction is evaluated by determining the damage to the gastrointestinal mucosa, the hepatic damage and blood hypertension induced by administration of L-NAME.
The animals (rats) are divided in groups as herein below shown. The group receiving L-NAME is treated for 4 weeks with said compound dissolved at a concentration of 400 mg/liter in drinking water. The following groups are constituted (No. 10 animals for group):
(§1) • 1° group: only carrier (aqueous suspension 1% w/v of carboxymethylcellulose, dose: 5 ml/Kg when the drug is administered by os, physiologic solution when administered parenterally), • 2° group: carrier+L-NAME, B) Groups Administered with the Drug: • 3° group: carrier+drug, • 4° group: carrier+drug+L-NAME.
The administration routes are those known for the drug, and can be the oral or subcutaneous, intraperitoneal, intravenous or intramuscular route. […] The drug is administered once a day for 4 weeks.
At the end of the four weeks treatment access to water is prevented and after 24 hours the animals are sacrificed.
One hour before the sacrifice blood-pressure is determined, and a blood pressure increase is taken as an evaluation of the damage to vascular endothelium. […] The hepatic damage is determined by evaluation of the glutamic-pyruvic transaminase (GPT increase) after sacrifice.
Test 3—experimental in vivo model with N^w-nitro-L-arginine-methyl ester (L-NAME): gastric tolerability (gastrointestinal damage incidence), hepatic (GPT dosage, glutamic-pyruvic transaminase) and cardiovascular (blood pressure) of some drugs screened as precursors of the compounds of the invention.
The endothelial dysfunction is evaluated by determining the damage induced by L-NAME administration to the gastrointestinal mucosa, the hepatic damage (GPT increase), and the vascular endothelium or cardiovascular damage as blood hypertension.
The animals (rats, average weight 200 g) are divided in groups as herein below described. The group receiving L-NAME is treated for 4 weeks with said compound dissolved at the concentration of 400 mg/liter in drinking water. The following groups (No. 10 animals for group) are constituted:
as §1, with “group: treatment:” for “group:”, “by parenteral route),” for “administered parenterally),”, “Treated” for “Administered”
Each drug is administered once a day for 4 weeks.
The maximum tolerated dose of the drug being administered to the animals is determined by evaluating, in a separate dose scaling up experiment on untreated animals, the appearance in the animals of symptoms such as enteropathy, diarrhoea, depression, tremor, sedation.
At the end of the four weeks access to water is prevented and after 24 hours the animals are sacrificed.
One hour before the sacrifice blood pressure is determined and a blood pressure increase is taken as an indication of a damage being occurred to vascular endothelium.
The hepatic damage is determined by evaluation after the sacrifice of the glutamic-pyruvic transaminase (GPT increase).
The % gastric lesions have been determined as in Test 1.

Q: How did the Gastropathy % incidence [1] turn out when Nc1c(Br)cc(Br)cc1CN[C@H]1CC[C@H](OC(=O)CCCO[N+](=O)[O-])CC1 [Example 3, 4-(nitroxy)butyric acid 4-[(2-amino-3,5-dibromophenyl)methylamino] trans cyclohexyl ester] was run?
A: 10%

Q: Which “inhibition of haemolysis induced by cumene hydroperoxide (in words)” value [2] does the source give for OCCNCCO [Diethanolamine] here?
A: does not inhibit haemolysis

Q: What about the “% Haemolysis inhibition” value ([2]; preincubated 30 minutes, cumene hydroperoxide 270 μM, at Tmax) of the same compound?
A: 2.5%

Q: For COc1ccc2c(c1)c(CC(=O)O)c(C)n2C(=O)c1ccc(Cl)cc1 [Indomethacin], which “Gastro-enteropathy (% incidence) without NEM” value ([3]; 24 hours) is on record?
A: 0%

Q: And the “inhibition of apoptosis induced by CIP (in words, p<0.01)” value (from here on “inhibition … (in words, p<0.01)”) [4]?
A: not significantly different with respect to that of the controls

Q: And the “inhibition … (in words, p<0.01)” value ([4]; listed as indomethacin)?
A: do not significantly inhibit apoptosis

Q: What does the source list for COc1ccc2[nH]c([S+]([O-])Cc3ncc(C)c(OC)c3C)nc2c1 (centres unmarked) [Omeprazol]?
A: Gastro-enteropathy (% incidence) without NEM ([3]; 24 hours): 0%; inhibition of apoptosis induced by CIP (in words, p<0.01) [4]: do not significantly inhibit apoptosis; Blood pressure % without L-NAME [5]: 100%; GPT % without L-NAME [5]: 100%; Gastroenteropathy % without L-NAME [5]: 0%

Q: With CC1(C)S[C@@H]2[C@H](NC(=O)[C@H](N)c3ccccc3)C(=O)N2[C@H]1C(=O)O [ampicilline] as the compound, how does the “inhibition … (in words, p<0.01)” value [4] read?
A: do not significantly inhibit apoptosis

Q: Which Gastropathy % incidence [1] does the source give for O=C(O)Cc1ccccc1Nc1c(Cl)cccc1Cl [Diclofenac, diclofenac] here?
A: 70%

Q: COc1cccc2c1C(=O)c1c(O)c3c(c(O)c1C2=O)C[C@@](O)(C(=O)CO)C[C@@H]3O[C@H]1C[C@H](N)[C@H](O)[C@H](C)O1 [Doxorubicin, doxorubicin] was tested. Which activity at 100 µM [4] did it give?
A: 94%

Q: What about the “Blood pressure % without L-NAME” value [5] of the same compound?
A: 120%

Q: What about the “GPT % without L-NAME” value [5] of the same compound?
A: 195%

Q: And the “Gastroenteropathy % without L-NAME” value [5]?
A: 30%

Q: For O=C(O)COCCN1CCN(C(c2ccccc2)c2ccc(Cl)cc2)CC1 (centres unmarked) [Cetirizine, cetirizine], which “inhibition … (in words, p<0.01)” value [4] is on record?
A: do not significantly inhibit apoptosis

Q: O=C(CCCO[N+](=O)[O-])NCCCC(O)(P(=O)(O)O)P(=O)(O)O [Example 4, [4-[4-(nitroxy)butyroyl]amino-1-hydroxybutylidene]biphosphonic acid] was tested. Which Gastropathy % incidence [1] did it give?
A: 10%

Q: How did the “inhibition … (in words, p<0.01)” value [4] turn out when Nc1nc2c(ncn2COCCO)c(=O)[nH]1 [Acyclovir, aciclovir] was run?
A: do not significantly inhibit apoptosis

Q: What about the “Apoptosis % with respect to the controls treated only with CIP” value (from here on “Apoptosis %”) [4] of the same compound?
A: 95%

Q: For Nc1c(Br)cc(Br)cc1CN[C@H]1CC[C@H](O)CC1 [Ambroxol, ambroxol], which “Gastro-enteropathy (% incidence) with NEM” value ([3]; NEM 25 mg/kg s.c. one hour before drug, 24 hours) is on record?
A: 80%

Q: And the “gastrointestinal damages / gastric lesions in rats treated with NEM + drug (in words)” value ([3]; NEM 25 mg/kg s.c., drug at maximum tolerated dose)?
A: showed gastric lesions

Q: What about the “Gastro-enteropathy (% incidence) without NEM” value ([3]; 24 hours) of the same compound?
A: 0%

Q: What about the “inhibition … (in words, p<0.01)” value [4] of the same compound?
A: inhibit apoptosis

Q: What about the Gastropathy % incidence [1] of the same compound?
A: 60%

Q: With CCCCC(C)(O)C/C=C/[C@H]1[C@H](O)CC(=O)[C@@H]1CCCCCCC(=O)OC (mixture of isomers) [Misoprostol] as the compound, how does the “Gastro-enteropathy (% incidence) without NEM” value ([3]; 24 hours) read?
A: 0%

Q: And the “Blood pressure % without L-NAME” value [5]?
A: 100%

Q: And the “GPT % without L-NAME” value [5]?
A: 100%

Q: What about the “Gastroenteropathy % without L-NAME” value [5] of the same compound?
A: 0%

Q: How did the “inhibition … (in words, p<0.01)” value [4] turn out when NC(=O)c1cccnc1 [Nicotinamide] was run?
A: do not significantly inhibit apoptosis

Q: What does the source list for enalapril?
A: inhibition of apoptosis induced by CIP (in words, p<0.01) [4]: do not significantly inhibit apoptosis; Apoptosis % with respect to the controls treated only with CIP [4]: 80%

Q: How did the “inhibition … (in words, p<0.01)” value [4] turn out when salbutamol was run?
A: do not significantly inhibit apoptosis

Q: And the “Apoptosis %” value [4]?
A: 90%

Q: Which results are given for Nc1ccc(O)c(C(=O)O)c1 [Mesalamine]?
A: Gastro-enteropathy (% incidence) without NEM ([3]; 24 hours): 0%; inhibition of apoptosis induced by CIP (in words, p<0.01) [4]: inhibit apoptosis; also recorded: inhibits the apoptosis induced by CIP

Q: CCC(C)(C)C(=O)O[C@H]1C[C@@H](C)C=C2C=C[C@H](C)[C@H](CCC3CC(O)CC(=O)O3)[C@H]21 (some centres unmarked) [Simvastatin, simvastatine] was tested. Which activity at 100 µM [4] did it give?
A: 72%

Q: With COC(=O)[C@H](c1ccccc1Cl)N1CCc2sccc2C1 [Clopidogrel] as the compound, how does the “inhibition … (in words, p<0.01)” value [4] read?
A: do not significantly inhibit apoptosis

Q: What about the “Apoptosis %” value [4] of the same compound?
A: 110%

Q: With O=C(CCCO[N+](=O)[O-])Nc1c2c(nc3ccccc13)CCCC2 [Example 11] as the compound, how does the Gastropathy % incidence [1] read?
A: 20%
